Earlier results in patent publication EP3616687A2, “PREPARATION FOR THE TREATMENT AND/OR PROPHYLAXIS OF INFLAMMATORY INFECTIOUS DISEASES” (Lovtsov, Valentin Vyacheslavovich, priority 2017, dated 2018).

Conditions: clinical microbiological studies

In the case of `[H]/N=C(\N/C(=N/[H])NCCCCCCNC(=N)NC(=N)Nc1ccc(Cl)cc1)Nc1ccc(Cl)cc1` [Chlorhexidine], the “antibacterial activity, fold higher compared to Miramistine” value is listed as 8 fold.
